Several values for one entry are separate records, joined by “and”; a condition that tells them apart may be missing. Equal values may be shown once. Activity calls are given as the source filed them.
Columns and labels:
[1] = biological target: Tyrosyl-DNA phosphodiesterase 2 (Homo sapiens, UniProt O95551); assay: human TDP2 enzyme inhibitors, dose response, biochemical, epi absorbance, IC50 (AID 743297)
Procathepsin L = Procathepsin L (Homo sapiens, UniProt P07711)
[2] = biological target: Glucose-6-phosphate 1-dehydrogenase (Homo sapiens, UniProt P11413); assay: human G6PD enzyme inhibitors, dose response, selectivity assay for P. falciparum G6PD inhibitor project, biochemical, fluorescence (AID 504792); type: functional
[3] = biological target: Phosphoethanolamine/phosphocholine phosphatase (Homo sapiens, UniProt Q8TCT1); assay: SAR assay for compounds that inhibit PHOSPHO1. [Related pubchem assays (depositor defined):AID1545, AID1565, AID1574]
cells = type: functional
[4] = biological target: T1, Rac GTPase-activating protein 1 (Homo sapiens, UniProt Q9H0H5); assay: MgcRacGAP GTPase-activating activity inhibitors, confirmation, biochemical, ADP Hunter fluorescence, primary and confirmatory (AID 624330); type: functional
T1 sequence (Q9H0H5 whole entry): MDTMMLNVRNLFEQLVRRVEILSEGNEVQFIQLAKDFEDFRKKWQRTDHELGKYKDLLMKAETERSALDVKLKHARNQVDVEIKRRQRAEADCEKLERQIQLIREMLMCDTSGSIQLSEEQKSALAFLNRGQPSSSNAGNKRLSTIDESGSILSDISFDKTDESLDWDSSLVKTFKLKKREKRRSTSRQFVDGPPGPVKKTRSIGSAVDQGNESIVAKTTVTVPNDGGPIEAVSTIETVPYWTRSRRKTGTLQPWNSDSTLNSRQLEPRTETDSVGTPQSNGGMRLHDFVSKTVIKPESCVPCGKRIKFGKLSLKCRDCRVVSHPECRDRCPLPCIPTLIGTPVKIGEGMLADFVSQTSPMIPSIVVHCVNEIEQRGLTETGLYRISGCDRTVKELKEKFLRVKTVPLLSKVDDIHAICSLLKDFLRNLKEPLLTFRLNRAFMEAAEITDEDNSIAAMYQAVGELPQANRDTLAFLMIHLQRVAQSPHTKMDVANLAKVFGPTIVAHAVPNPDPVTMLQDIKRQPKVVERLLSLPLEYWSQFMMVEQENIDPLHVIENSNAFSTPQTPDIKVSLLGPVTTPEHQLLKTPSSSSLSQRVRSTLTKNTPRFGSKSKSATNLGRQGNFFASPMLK

[5] = biological target: Megakaryocyte-associated tyrosine-protein kinase (Homo sapiens, UniProt P42679); type: functional;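 note: affinity measured as one member of a kinase panel (Navigating the Kinome) against MATK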
[6] = biological target: Dual specificity protein kinase CLK2 (Homo sapiens, UniProt P49760); type: functional
[7] = biological target: MAP kinase-activated protein kinase 5 (Homo sapiens, UniProt Q8IW41); type: functional;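 note: measured as one member of a kinome panel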
[8] = biological target: MAP kinase-activated protein kinase 2 (Homo sapiens, UniProt P49137); type: functional;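 note: measured as one member of a kinome-wide kinase panel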
[9] = biological target: Mast/stem cell growth factor receptor Kit (Homo sapiens, UniProt P10721); type: functional;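 note: KIT entry within a kinase panel assay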
[10] = biological target: Serine/threonine-protein kinase PAK 1 (Homo sapiens, UniProt Q13153); type: functional
[11] = biological target: MAP/microtubule affinity-regulating kinase 3 (Homo sapiens, UniProt P27448); type: functional;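 note: MARK3 affinity measured as one member of a kinome panel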
[12] = biological target: Serine/threonine-protein kinase pim-3 (Homo sapiens, UniProt Q86V86); type: functional;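 note: value obtained as one member of a broad kinase panel profiling effort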
[13] = biological target: Hepatocyte growth factor receptor (Homo sapiens, UniProt P08581); type: functional;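 note: kinase panel profiling across the kinome, with MET as the panel member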
[14] = biological target: Serine/threonine-protein kinase Chk1 (Homo sapiens, UniProt O14757); type: functional;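 note: measured as one member of a kinome-wide kinase profiling panel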
[15] = biological target: Cyclin-dependent kinase 5 (Homo sapiens, UniProt Q00535); type: functional;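 note: CDK5 measured as one member of a kinase profiling panel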
[16] = biological target: Insulin-like growth factor 1 receptor (Homo sapiens, UniProt P08069); assay: Navigating the Kinome. Panel member name: IGF1R; type: functional
[17] = biological target: Dual specificity tyrosine-phosphorylation-regulated kinase 4 (Homo sapiens, UniProt Q9NR20); type: functional
[18] = biological target: Protein-tyrosine kinase 6 (Homo sapiens, UniProt Q13882); type: functional
Aurora kinase B = Aurora kinase B (Homo sapiens, UniProt Q96GD4); type: functional
[19] = biological target: Mitogen-activated protein kinase kinase kinase kinase 5 (Homo sapiens, UniProt Q9Y4K4); type: functional;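 note: measured as one member of a kinome-spanning kinase panel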
[20] = biological target: 3-phosphoinositide-dependent protein kinase 1 (Homo sapiens, UniProt O15530); type: functional;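 note: value comes from the Navigating the Kinome panel, PDPK1 member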
[21] = biological target: Serine/threonine-protein kinase Nek2 (Homo sapiens, UniProt P51955); type: functional
[22] = biological target: Vascular endothelial growth factor receptor 1 (Homo sapiens, UniProt P17948); type: functional;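 note: measured within a kinome-wide profiling panel, FLT1 as the panel member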
[23] = biological target: Fibroblast growth factor receptor 3 (Homo sapiens, UniProt P22607); type: functional
[24] = biological target: cAMP-dependent protein kinase catalytic subunit alpha (Homo sapiens, UniProt P17612); type: functional
[25] = biological target: Serine/threonine-protein kinase 3 (Homo sapiens, UniProt Q13188); type: functional;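 note: measured as one member of a kinome-wide kinase panel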
[26] = cytotoxicity in HEK-293T cells, dose response, cytotoxicity control for TCR NF-kB inhibitor project, luminescence, T-cell screen hits (AID 489026); type: functional, cell-based;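 note: cells exposed to compound about 14 hours before the viability readout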
HEK293 = assay: inhibitors of LMP1-driven NF-kB reporter, dose response, cell-based, HEK293, luciferase, cherry-pick (AID 588343); type: functional; settings: Homo sapiens
Paired box protein Pax-8 = Paired box protein Pax-8 (Homo sapiens, UniProt Q06710); assay: inhibitors of PAX8-driven TPO luciferase reporter, dose response, RMG-I cells, cherry-pick (AID 687027); type: functional, cell-based;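 note: luciferase reporter driven by Pax8 target thyroperoxidase promoter measured by SteadyGlo luminescence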
Bcl-2-like protein 10 = biological target: T2, Bcl-2-like protein 10 (Homo sapiens, UniProt Q9HD36); assay: displacers of TR3 peptide from Bcl-B, primary screen, selectivity assay for Bfl-1 inhibitor project, biochemical, fluorescence polarization, FITC-TR3 peptide (AID 748);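 note: fluorescence polarization from a fluorescein-labelled TR3 peptide binding purified Bcl-B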
T2 sequence (Q9HD36 whole entry): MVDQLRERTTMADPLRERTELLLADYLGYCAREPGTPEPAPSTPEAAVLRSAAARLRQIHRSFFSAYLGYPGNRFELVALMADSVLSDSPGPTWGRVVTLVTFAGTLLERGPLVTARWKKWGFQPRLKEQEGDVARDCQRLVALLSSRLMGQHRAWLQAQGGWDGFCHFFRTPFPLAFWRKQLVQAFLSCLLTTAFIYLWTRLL

HeLa = assay: HeLa cell cytotoxicity, dose response, cytotoxicity control, 24 h, cherry-picked samples (AID 504726); type: functional, cell-based; settings: Homo sapiens;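 note: potency for cytotoxicity as loss of luminescence signal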

Phosphoethanolamine/phosphocholine phosphatase, sequence (Q8TCT1 whole entry): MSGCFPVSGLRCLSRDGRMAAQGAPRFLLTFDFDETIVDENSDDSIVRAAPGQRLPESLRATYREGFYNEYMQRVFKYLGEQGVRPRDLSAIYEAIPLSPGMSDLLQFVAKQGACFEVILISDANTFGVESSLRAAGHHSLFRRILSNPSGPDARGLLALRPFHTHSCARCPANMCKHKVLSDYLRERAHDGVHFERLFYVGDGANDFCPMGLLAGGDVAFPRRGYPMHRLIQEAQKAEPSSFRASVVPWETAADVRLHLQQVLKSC
Dual specificity protein kinase CLK2, sequence (P49760 whole entry): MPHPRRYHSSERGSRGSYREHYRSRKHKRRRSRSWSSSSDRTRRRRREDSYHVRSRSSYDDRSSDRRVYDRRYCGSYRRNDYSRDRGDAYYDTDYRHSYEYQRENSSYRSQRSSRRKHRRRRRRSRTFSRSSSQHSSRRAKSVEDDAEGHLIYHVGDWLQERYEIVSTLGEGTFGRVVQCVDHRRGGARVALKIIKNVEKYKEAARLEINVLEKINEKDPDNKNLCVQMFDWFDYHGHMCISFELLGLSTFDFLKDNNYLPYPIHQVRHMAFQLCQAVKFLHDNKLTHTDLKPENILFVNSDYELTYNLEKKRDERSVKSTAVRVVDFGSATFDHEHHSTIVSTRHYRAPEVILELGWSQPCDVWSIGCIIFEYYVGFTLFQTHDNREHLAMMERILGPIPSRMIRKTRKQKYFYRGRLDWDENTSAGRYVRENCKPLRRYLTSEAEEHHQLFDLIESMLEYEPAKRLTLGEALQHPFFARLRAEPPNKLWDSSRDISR
Megakaryocyte-associated tyrosine-protein kinase, sequence (P42679 whole entry): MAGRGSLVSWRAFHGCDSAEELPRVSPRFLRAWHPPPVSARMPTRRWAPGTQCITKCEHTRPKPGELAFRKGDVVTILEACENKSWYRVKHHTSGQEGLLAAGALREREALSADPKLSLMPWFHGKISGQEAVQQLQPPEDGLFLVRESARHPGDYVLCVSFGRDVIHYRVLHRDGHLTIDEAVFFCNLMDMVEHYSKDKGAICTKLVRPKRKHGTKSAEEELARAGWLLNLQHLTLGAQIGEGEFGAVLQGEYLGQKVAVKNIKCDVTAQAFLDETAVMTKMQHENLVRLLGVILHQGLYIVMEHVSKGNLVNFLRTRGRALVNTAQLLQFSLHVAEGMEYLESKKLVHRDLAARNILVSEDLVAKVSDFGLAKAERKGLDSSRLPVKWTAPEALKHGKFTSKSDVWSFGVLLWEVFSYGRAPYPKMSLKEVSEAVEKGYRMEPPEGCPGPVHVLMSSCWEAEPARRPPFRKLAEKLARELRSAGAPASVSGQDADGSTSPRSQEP
MAP kinase-activated protein kinase 5, sequence (Q8IW41 whole entry): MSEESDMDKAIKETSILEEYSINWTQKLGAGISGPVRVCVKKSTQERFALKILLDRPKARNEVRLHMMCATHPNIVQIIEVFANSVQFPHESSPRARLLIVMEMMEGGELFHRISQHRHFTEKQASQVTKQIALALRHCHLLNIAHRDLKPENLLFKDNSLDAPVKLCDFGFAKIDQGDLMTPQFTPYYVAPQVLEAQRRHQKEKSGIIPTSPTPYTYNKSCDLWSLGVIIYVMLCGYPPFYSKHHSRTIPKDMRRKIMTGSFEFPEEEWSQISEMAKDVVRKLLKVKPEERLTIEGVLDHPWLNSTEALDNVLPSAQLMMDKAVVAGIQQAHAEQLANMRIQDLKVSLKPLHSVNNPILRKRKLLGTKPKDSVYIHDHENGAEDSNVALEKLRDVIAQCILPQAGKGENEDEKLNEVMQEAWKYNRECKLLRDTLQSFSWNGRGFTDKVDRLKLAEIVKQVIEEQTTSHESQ
Aurora kinase B, sequence (Q96GD4 whole entry): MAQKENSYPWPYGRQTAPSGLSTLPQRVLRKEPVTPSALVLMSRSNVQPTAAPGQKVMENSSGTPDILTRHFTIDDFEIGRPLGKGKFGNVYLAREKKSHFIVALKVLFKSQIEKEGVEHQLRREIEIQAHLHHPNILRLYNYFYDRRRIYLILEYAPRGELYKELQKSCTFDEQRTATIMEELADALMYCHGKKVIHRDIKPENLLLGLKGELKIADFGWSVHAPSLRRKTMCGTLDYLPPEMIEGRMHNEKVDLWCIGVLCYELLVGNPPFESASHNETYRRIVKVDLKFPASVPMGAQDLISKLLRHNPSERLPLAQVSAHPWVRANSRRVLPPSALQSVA
MAP kinase-activated protein kinase 2, sequence (P49137 whole entry): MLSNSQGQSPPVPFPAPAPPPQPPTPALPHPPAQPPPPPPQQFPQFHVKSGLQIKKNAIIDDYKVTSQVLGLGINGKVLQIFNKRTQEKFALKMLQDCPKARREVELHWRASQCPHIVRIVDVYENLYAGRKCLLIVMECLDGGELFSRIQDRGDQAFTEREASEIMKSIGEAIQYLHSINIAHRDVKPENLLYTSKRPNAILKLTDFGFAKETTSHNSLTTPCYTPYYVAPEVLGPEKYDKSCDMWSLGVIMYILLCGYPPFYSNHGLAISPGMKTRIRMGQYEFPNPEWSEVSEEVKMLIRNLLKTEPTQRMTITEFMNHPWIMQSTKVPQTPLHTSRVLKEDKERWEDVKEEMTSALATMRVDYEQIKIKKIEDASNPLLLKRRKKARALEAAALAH
Tyrosyl-DNA phosphodiesterase 2, sequence (O95551 whole entry): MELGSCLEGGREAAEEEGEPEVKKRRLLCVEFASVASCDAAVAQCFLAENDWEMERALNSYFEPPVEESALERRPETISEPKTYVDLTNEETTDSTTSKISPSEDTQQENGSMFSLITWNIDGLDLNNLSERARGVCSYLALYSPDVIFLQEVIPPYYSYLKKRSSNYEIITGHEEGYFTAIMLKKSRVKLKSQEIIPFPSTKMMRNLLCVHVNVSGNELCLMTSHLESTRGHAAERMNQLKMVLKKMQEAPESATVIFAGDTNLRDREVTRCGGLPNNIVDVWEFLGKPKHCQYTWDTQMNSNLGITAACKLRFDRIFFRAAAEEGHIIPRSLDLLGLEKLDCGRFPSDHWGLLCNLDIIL
Paired box protein Pax-8, sequence (Q06710 whole entry): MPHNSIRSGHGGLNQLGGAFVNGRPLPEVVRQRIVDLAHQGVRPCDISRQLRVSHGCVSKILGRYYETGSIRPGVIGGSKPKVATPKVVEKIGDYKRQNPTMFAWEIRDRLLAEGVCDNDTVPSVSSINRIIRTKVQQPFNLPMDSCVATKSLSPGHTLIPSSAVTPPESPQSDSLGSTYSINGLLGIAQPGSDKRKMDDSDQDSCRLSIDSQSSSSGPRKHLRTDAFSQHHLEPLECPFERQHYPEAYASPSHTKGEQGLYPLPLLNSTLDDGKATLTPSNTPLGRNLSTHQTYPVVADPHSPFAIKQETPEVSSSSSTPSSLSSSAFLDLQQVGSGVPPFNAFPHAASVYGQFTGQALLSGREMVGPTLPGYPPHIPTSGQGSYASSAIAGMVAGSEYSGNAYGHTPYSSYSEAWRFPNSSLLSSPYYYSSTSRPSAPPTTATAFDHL
Serine/threonine-protein kinase PAK 1, sequence (Q13153 whole entry): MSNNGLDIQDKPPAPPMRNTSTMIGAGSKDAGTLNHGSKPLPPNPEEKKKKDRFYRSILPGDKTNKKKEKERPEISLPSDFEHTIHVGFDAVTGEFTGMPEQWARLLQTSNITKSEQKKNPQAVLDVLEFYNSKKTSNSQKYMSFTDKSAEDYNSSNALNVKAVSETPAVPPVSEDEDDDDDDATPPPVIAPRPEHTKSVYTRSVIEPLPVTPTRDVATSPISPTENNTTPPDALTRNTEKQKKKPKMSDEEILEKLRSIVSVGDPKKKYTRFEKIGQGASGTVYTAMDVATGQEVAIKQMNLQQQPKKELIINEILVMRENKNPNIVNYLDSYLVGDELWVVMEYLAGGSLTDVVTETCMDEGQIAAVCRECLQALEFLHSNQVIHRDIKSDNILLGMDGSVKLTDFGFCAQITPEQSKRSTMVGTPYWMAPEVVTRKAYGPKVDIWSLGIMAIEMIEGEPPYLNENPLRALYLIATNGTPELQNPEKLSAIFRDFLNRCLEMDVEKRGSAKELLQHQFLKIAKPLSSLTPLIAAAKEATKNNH
Dual specificity tyrosine-phosphorylation-regulated kinase 4, sequence (Q9NR20 whole entry): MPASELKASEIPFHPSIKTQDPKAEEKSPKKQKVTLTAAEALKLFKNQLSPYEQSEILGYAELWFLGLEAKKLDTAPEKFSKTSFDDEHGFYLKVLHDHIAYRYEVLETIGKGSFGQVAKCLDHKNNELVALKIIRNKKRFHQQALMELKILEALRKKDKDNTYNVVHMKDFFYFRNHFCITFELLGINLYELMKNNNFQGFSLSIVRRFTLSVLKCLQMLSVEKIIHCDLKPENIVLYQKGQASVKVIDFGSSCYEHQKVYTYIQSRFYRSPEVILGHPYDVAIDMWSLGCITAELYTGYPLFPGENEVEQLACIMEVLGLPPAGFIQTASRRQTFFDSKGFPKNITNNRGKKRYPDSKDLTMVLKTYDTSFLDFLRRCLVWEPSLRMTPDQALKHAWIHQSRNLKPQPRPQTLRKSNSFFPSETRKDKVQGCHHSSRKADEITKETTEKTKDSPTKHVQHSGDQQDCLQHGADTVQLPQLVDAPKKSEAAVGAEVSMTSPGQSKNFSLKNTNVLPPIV

For `CC(=O)N(/N=C1\Sc2ccccc2C1=O)c1ccccc1C`, the IC50 [1] was 7.67 µM (active).

In the case of `Cc1ccc(-n2sc3ccccc3c2=O)cc1`, the IC50 (Procathepsin L) is reported as > 59.6 µM (not active), the IC50 [2] is reported as 30.1 µM (inactive) and the IC50 [3] is reported as 2.28 µM (inactive) and 1.46 µM (inactive). The IC50 (cells) was 22.4 µM (active) and the IC50 [4] was 87.4 µM (active).

In the case of `Cc1cccc(NC(=O)Nc2ccc3c(c2)CCc2sc4ncnc(N)c4c2-3)c1`, the Ki [5] is reported as > 2 µM (inactive), the Ki [6] is reported as 1 µM (active) and the Ki [7] is reported as > 1.58 µM (inactive). For the same compound, the Ki [8] was > 7.94 µM (inactive), the Ki [9] was > 1.26 µM (inactive) and the Ki [10] was > 10 µM (inactive). For the same compound, the Ki [11] was 3.16 µM (active), the Ki [12] was 5.01 µM (active) and the Ki [13] was > 3.16 µM (inactive). For the same compound, the Ki [14] was > 7.94 µM (inactive), the Ki [15] was > 10 µM (inactive) and the Ki [16] was > 2 µM (inactive). For the same compound, the Ki [17] was 6.31 µM (active), the Ki [18] was > 2.51 µM (inactive) and the Ki (Aurora kinase B) was 0.0316 µM (active). The Ki [19] was 0.501 µM (active), the Ki [20] was > 3.98 µM (inactive) and the Ki [21] was > 10 µM (inactive). The Ki [22] was 0.00631 µM (active), the Ki [23] was > 2 µM (inactive) and the Ki [24] was > 7.94 µM (inactive). For the same compound, the Ki [25] was > 7.94 µM (inactive).

In the case of `CCC(=O)NC(c1ccc(C)cc1)c1ccc2cccnc2c1O` (stereo not drawn), the IC50 [26] is reported as > 80 µM (inactive), the AC50 (HEK293) is reported as 4.51 µM (active) and the AC50 (Paired box protein Pax-8) is reported as 1.81 µM (active).

With `N/C(=N\N=C/c1ccc(-c2ccc(O)c(C(=O)O)c2)o1)N[N+](=O)[O-]` the IC50 (Bcl-2-like protein 10) was 2.82 µM (active) and the AC50 (HeLa) was 151 µM (active).

From ChEMBL document CHEMBL1201862, “PubChem BioAssay data set” (2004)
